Each structure is given as a SMILES string. Values joined by “and” are separate entries in the source; they are usually repeats but may differ in a detail not shown here. Equal entries are not always repeated. Inconclusive results are not listed.

Experimental findings from PubChem BioAssay AID310 (DTP/NCI, 2004) are described below.

The experiment concerns C3AKF1 mice, osteogenic sarcoma HE10734 s.c., tumor weight T/C. Briefly: NCI In Vivo Anticancer Drug Screen. Data for tumor model Osteogenic Sarcoma HE 10734 (subcutaneous) in C3AKF1 (CHKRF1) mice. The note with it: endpoint: mean tumor weight, schedule: Q01DX010 (ip), higher = larger tumour. How it is done:
The antitumor activity of compounds was measured in mice bearing transplantable tumors. Survival or tumor size were measured and the results are expressed as the measurement made in the treated group (T) divided by the measurement made in the vehicle treated control group (C). The tumor model used in this assay is Osteogenic Sarcoma HE 10734 (subcutaneous) in C3AKF1 (CHKRF1) mice

The mark [1] stands for this setting: dose: 25.0 mg/kg/injection, vehicle: saline.
Setting [2] is: dose: 50.0 mg/kg/injection, vehicle: saline.
Where [3] appears, read: dose: 100.0 mg/kg/injection, vehicle: saline.
Setting [4] is: dose: 200.0 mg/kg/injection, vehicle: saline.
Setting [5] is: dose: 125.0 mg/kg/injection, vehicle: saline.
Where [6] appears, read: dose: 25.0 mg/kg/injection, vehicle: carboxymethylcellulose (CMC).
The mark [7] stands for this setting: dose: 75.0 mg/kg/injection, vehicle: saline.
Setting [8] is: dose: 0.75 mg/kg/injection, vehicle: saline.
[9] abbreviates: dose: 16.0 mg/kg/injection, vehicle: carboxymethylcellulose (CMC).

With `CCCCCCCCCCCCCS`, the T/C under setting [1] is 76 % of control, the T/C under setting [2] was 87 % of control, the T/C under setting [3] was 82 % of control and the T/C under setting [4] was 89 % of control.

Regarding `O=c1n(CCCl)c(=O)n(CCCl)c(=O)n1CCCl`, the T/C reads like this: (dose: 31.0 mg/kg/injection, vehicle: saline) 81 % of control; (dose: 62.0 mg/kg/injection, vehicle: saline) 83 % of control; under setting [5], 75 % of control; (dose: 370.0 mg/kg/injection, vehicle: saline) 116 % of control.

As for `Nc1nc(SCc2ccc([N+](=O)[O-])cc2)c2[nH]cnc2n1`, the T/C was 86 % of control under setting [5]; 89 % of control (dose: 250.0 mg/kg/injection, vehicle: saline); 58 % of control (dose: 500.0 mg/kg/injection, vehicle: saline); 59 % of control (dose: 1000.0 mg/kg/injection, vehicle: saline).

With `O=C(O)Cc1ccc(C2CCCCC2)cc1`, the T/C (dose: 150.0 mg/kg/injection, vehicle: carboxymethylcellulose (CMC)) was 95 % of control.

Take `ClCCn1cnc2c(SCc3ccccc3Cl)ncnc21`: the T/C reads like this: under setting [2], 72 % of control; under setting [3], 56 % of control; under setting [4], 35 % of control.

`CC(C)Sc1nc(N)nc2nc[nH]c12`: the T/C under setting [1] was 71 % of control, the T/C under setting [2] is 83 % of control, the T/C under setting [3] was 76 % of control and the T/C under setting [4] was 23 % of control.

As to `Nc1nc(SCc2ccccc2Cl)c2[nH]cnc2n1`, the T/C (dose: 6.0 mg/kg/injection, vehicle: carboxymethylcellulose (CMC)) is 70 % of control; the T/C (dose: 12.0 mg/kg/injection, vehicle: carboxymethylcellulose (CMC)) was 52 % of control; the T/C under setting [6] is 54 % of control; the T/C (dose: 50.0 mg/kg/injection, vehicle: carboxymethylcellulose (CMC)) is 43 % of control; the T/C under setting [2] was 32 % of control and 39 % of control; the T/C (dose: 70.0 mg/kg/injection, vehicle: saline) is 41 % of control. Also, the T/C (dose: 110.0 mg/kg/injection, vehicle: saline) was 16 % of control and 33 % of control; the T/C (dose: 165.0 mg/kg/injection, vehicle: saline) is 13 % of control.

On to `CN(C)Nc1ncnc2nc[nH]c12`, for which the T/C runs as follows: (dose: 20.0 mg/kg/injection, vehicle: saline) 84 % of control; (dose: 40.0 mg/kg/injection, vehicle: saline) 72 % of control; (dose: 80.0 mg/kg/injection, vehicle: saline) 38 % of control.

Take `CC[C@H]1CN2CCc3cc(OC)c(OC)cc3[C@@H]2C[C@@H]1C[C@H]1NCCc2cc(OC)c(OC)cc21`: the T/C is 82 % of control (dose: 1.0 mg/kg/injection, vehicle: saline) and 82 % of control (dose: 2.0 mg/kg/injection, vehicle: saline).

Regarding `Nc1ncnc2c1ncn2C1CCCO1` (centres undefined), the T/C runs as follows: under setting [7], 86 % of control; (dose: 150.0 mg/kg/injection, vehicle: saline) 54 % of control.

With `Nc1nc(N)c(N=O)c(Nc2ccc(Br)cc2)n1`, the T/C is 94 % of control (dose: 22.0 mg/kg/injection, vehicle: carboxymethylcellulose (CMC)); 66 % of control (dose: 44.0 mg/kg/injection, vehicle: carboxymethylcellulose (CMC)); 62 % of control (dose: 88.0 mg/kg/injection, vehicle: carboxymethylcellulose (CMC)); 58 % of control and 61 % of control (dose: 175.0 mg/kg/injection, vehicle: carboxymethylcellulose (CMC)); 33 % of control (dose: 265.0 mg/kg/injection, vehicle: carboxymethylcellulose (CMC)); 34 % of control (dose: 395.0 mg/kg/injection, vehicle: carboxymethylcellulose (CMC)).

For `CN(C)CCCN1c2ccccc2Sc2ccc(C(F)(F)F)cc21`, the T/C (dose: 12.0 mg/kg/injection, vehicle: saline) is 90 % of control and the T/C under setting [1] was 90 % of control.

In the case of `c1cc2n(n1)CCN2`, the T/C was 100 % of control (dose: 30.0 mg/kg/injection, vehicle: saline); 68 % of control (dose: 60.0 mg/kg/injection, vehicle: saline); 40 % of control (dose: 120.0 mg/kg/injection, vehicle: saline).

On to `ClCCn1cnc2c(SCc3ccccc3)ncnc21`, for which the T/C was 75 % of control under setting [1]; 64 % of control under setting [2]; 56 % of control under setting [3]; 69 % of control (dose: 300.0 mg/kg/injection, vehicle: saline); 65 % of control (dose: 450.0 mg/kg/injection, vehicle: saline).

In the case of `O=C(O)c1ccc(-c2ccccc2)cc1`, the T/C (dose: 200.0 mg/kg/injection, vehicle: carboxymethylcellulose (CMC)) is 70 % of control.

Consider `O=C(c1ccc(C(=O)N2CC2)cc1)N1CC1`, for which the T/C reads like this: (dose: 3.13 mg/kg/injection, vehicle: carboxymethylcellulose (CMC)) 55 % of control; (dose: 6.25 mg/kg/injection, vehicle: carboxymethylcellulose (CMC)) 106 % of control; (dose: 12.5 mg/kg/injection, vehicle: carboxymethylcellulose (CMC)) 118 % of control.

As for `C=CC(=O)NCNC(=O)C=C`, the T/C (dose: 37.5 mg/kg/injection, vehicle: saline) was 66 % of control and the T/C under setting [7] was 65 % of control.

For `CCCC(=O)NC1=C(N2CC2)C(=O)C(NC(=O)CCC)=C(N2CC2)C1=O`, the T/C by setting is: (dose: 0.5 mg/kg/injection, vehicle: saline) 104 % of control; under setting [8], 72 % of control; (dose: 1.1 mg/kg/injection, vehicle: saline) 83 % of control; (dose: 1.7 mg/kg/injection, vehicle: saline) 47 % of control and 60 % of control.

Regarding `CN(N=O)C(N)=O`, the T/C was 47 % of control and 55 % of control (dose: 10.0 mg/kg/injection, vehicle: carboxymethylcellulose (CMC)); 34 % of control and 39 % of control under setting [9]; 38 % of control under setting [6].

For `CCN(CC)Cc1cc(Nc2c3ccccc3nc3cc(Cl)ccc23)ccc1O`, the T/C is, setting by setting: (dose: 12.5 mg/kg/injection, vehicle: saline) 78 % of control; under setting [1], 111 % of control; under setting [2], 70 % of control.

For the compound `COc1ccc(Nc2ccnc3cc(Cl)ccc23)cc1CN(CCCl)CCCl`, the T/C reads like this: under setting [8], 73 % of control; (dose: 1.5 mg/kg/injection, vehicle: saline) 57 % of control; (dose: 3.0 mg/kg/injection, vehicle: saline) 69 % of control.

Regarding `C/C=C1\CN(C)[C@H]2Cc3c([nH]c4ccccc34)[C@@H](c3cc4[nH]c5c(c4cc3OC)CCN3C[C@H]4C[C@H](CC)[C@H]3[C@@]5(C(=O)OC)C4)C[C@H]1C2C(=O)OC` (some centres undefined), the T/C (dose: 20.0 mg/kg/injection, vehicle: water) is 49 % of control.

Turning to `CS(=O)(=O)OCCCCCCCCCOS(C)(=O)=O`, the T/C runs as follows: (dose: 8.0 mg/kg/injection, vehicle: carboxymethylcellulose (CMC)) 81 % of control; under setting [9], 81 % of control; (dose: 28.0 mg/kg/injection, vehicle: carboxymethylcellulose (CMC)) 57 % of control; (dose: 55.0 mg/kg/injection, vehicle: carboxymethylcellulose (CMC)) 37 % of control.

For `Cn1cnc([N+](=O)[O-])c1Sc1nc(N)nc2c1ncn2C1OC(CO)C(O)C1O` (centres undefined), where the note is “dose: 7.5 mg/kg/injection, vehicle: carboxymethylcellulose (CMC)”, the T/C is 96 % of control.

Take `NC(CCSCc1ccc(N(CCCl)CCCl)cc1)C(=O)O` (centres undefined): the T/C is, setting by setting: (dose: 4.5 mg/kg/injection, vehicle: saline) 74 % of control; (dose: 9.0 mg/kg/injection, vehicle: saline) 105 % of control and 118 % of control; (dose: 54.0 mg/kg/injection, vehicle: saline) 39 % of control.
